{"source": "patent US20230331739A1", "about": "“INDOLO HEPTAMYL OXIME ANALOG CRYSTAL AS PARP INHIBITOR AND METHOD FOR PREPARING SAME” (CHIA TAI TIANQING PHARMACEUTICAL GROUP CO., LTD., priority 2020, published 2023)", "key": {"CYP3A4-M": {"target": "CYP3A4-M (Homo sapiens (Human), UniProt P08684)", "sequence (P08684 whole entry)": "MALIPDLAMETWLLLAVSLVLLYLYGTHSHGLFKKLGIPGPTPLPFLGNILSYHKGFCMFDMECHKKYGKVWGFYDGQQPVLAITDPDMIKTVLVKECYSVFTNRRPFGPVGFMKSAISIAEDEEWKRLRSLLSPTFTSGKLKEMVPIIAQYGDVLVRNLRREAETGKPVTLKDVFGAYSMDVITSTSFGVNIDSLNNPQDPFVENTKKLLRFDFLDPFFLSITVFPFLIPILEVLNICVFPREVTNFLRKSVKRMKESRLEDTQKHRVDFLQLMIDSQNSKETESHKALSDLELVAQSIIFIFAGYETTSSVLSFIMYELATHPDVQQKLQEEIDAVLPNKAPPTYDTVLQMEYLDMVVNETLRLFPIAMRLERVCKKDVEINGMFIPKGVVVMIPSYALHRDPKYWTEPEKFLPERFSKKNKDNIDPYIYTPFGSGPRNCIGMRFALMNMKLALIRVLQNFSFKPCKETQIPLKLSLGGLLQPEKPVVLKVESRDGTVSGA", "assay": "Inhibition against cytochrome P450 isoenzymes, CYP3A4-M", "format": "in vitro ADME", "settings": "human liver microsomes", "description": "(§1) The inhibition of the test compound against different subtypes of the human cytochrome P450 isoenzyme was determined. The test compound, a standard inhibitor (100×final concentration) and a mixed substrate working solution were prepared; the microsomes frozen in a refrigerator at −80° C. were taken out and thawed. […]"}, "[1]": {"test_system": "MDA-MB-231 cells with wild-type BRCA", "assay": "Anti-proliferation study on MDA-MB-231 cells (CellTiter-Glo)", "format": "cell-based", "settings": "Homo sapiens, MDA-MB-231, 72 h; 3 days incubation", "description": "Materials: test compounds; R DMEM medium; fetal bovine serum; penicillin/streptomycin antibiotic; MDA-MB-231 cells; Envision Multimode Plate Reader.\nMDA-MB-231 cells were seeded in a white 96-well plate by adding 80 μL of cell suspension (containing 5000 MDA-MB-231 cells) to each well. The cell plate was incubated in a CO2 incubator overnight.\nEight concentrations were set for each compound. The test compounds were serially 3-fold diluted to the 8th concentration with a multichannel pipette, i.e., from 2 mM to 920 nM, in duplicate. 78 μL of medium was added to an intermediate plate, and the serially diluted compound was transferred to the intermediate plate at 2 μL per well. After being mixed well, the mixture was transferred to the cell plate at 20 μL per well. […] Another cell plate was provided for reading signal values on the day of compound addition and these signal values were used as Max values in data analysis. Promega CellTiter-Glo was added to the cell plate at 25 μL per well and the luminescence signals were stabilized by incubation for 10 min at room temperature. Readings were taken using a PerkinElmer Envision Multimode Plate Reader.\nPromega CellTiter-Glo was added to the cell plate at 25 μL per well and the luminescence signals were stabilized by incubation for 10 min at room temperature. Readings were taken using a PerkinElmer Envision Multimode Plate Reader. […]"}, "[2]": {"assay": "Metabolic stability in liver microsomes, rat", "format": "in vitro ADME", "settings": "1 μM, 0.5 mg/mL", "description": "Objective: To test the metabolic stability of the test compound in liver microsomes of three species.\nProcedures: 1 μM test compound and microsomes (0.5 mg/mL) were incubated at 37° C. in the presence of an NADPH regeneration system. Positive controls were testosterone ([…]), propylamine propiophenone (2D6 substrate) and diclofenac (2C9 substrate). At 37° C., positive controls were incubated with microsomes (0.5 mg/mL) in the presence of an NADPH regeneration system. The reaction was stopped by direct mixing of the sample with cold acetonitrile containing an internal standard at various time points (0, 5, 10, 20, 30 and 60 min). The compound and microsomes were incubated for 60 min in the absence of an NADPH regeneration system. One replicate (n=1) was set at each time point. The samples were analyzed by LC/MS/MS; the concentration of the compound was characterized by the ratio of the analyte peak area to the internal standard peak area."}, "CYP2C9": {"target": "CYP2C9 (Homo sapiens (Human), UniProt P11712)", "sequence (P11712 whole entry)": "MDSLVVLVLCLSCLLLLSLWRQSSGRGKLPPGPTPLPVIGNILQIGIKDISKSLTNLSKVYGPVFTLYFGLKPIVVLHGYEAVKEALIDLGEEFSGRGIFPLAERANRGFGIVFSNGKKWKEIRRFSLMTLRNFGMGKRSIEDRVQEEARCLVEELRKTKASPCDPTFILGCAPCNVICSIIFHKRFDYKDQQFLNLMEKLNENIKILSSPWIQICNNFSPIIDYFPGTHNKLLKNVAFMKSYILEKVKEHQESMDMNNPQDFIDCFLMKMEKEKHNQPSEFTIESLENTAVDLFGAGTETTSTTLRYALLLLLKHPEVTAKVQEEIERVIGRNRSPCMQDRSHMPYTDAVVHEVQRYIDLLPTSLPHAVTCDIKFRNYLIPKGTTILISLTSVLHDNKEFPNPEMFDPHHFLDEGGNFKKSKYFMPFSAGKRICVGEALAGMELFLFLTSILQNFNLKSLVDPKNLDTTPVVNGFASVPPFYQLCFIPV", "assay": "Inhibition against cytochrome P450 isoenzymes, CYP2C9", "format": "in vitro ADME", "settings": "human liver microsomes", "description": "as §1"}, "[3]": {"assay": "Protein binding rate in plasma (equilibrium dialysis), SD rat", "format": "in vitro ADME", "settings": "4 h dialysis", "description": "The protein binding rates of the compound disclosed herein in plasma of human, CD-1 mice and SD rats were determined. 796 μL of blank plasma was taken from human, CD-1 mice or SD rats, and 4 μL of test compound working solution (400 μM) or warfarin working solution (400 μM) was added to achieve a final concentration of 2 μM of both the test compound and the warfarin in the plasma sample. The samples were mixed well. The final concentration of organic phase DMSO was 0.5%; 50 μL of test compound and warfarin plasma sample was pipetted into a sample receiving plate (in triplicate), and a corresponding volume of blank plasma or buffer was immediately added such that the final volume in each sample well was 100 μL. The volume ratio of plasma to dialysis buffer was 1:1. […] All samples were subjected to LC/MS analysis after protein precipitation, and the protein binding rates and the recovery rates were calculated by the following formulas: protein unbinding rate (%)=100× drug concentration passing through dialysis membrane/drug concentration not passing through dialysate; protein binding rate (%)=100−protein unbinding rate (%); recovery rate (%)=100×(drug concentration passing through dialysis membrane+drug concentration not passing through dialysate)/total drug concentration before dialysis."}, "[4]": {"assay": "Body weight change in the MDA-MB-436 xenograft study", "format": "in vivo", "settings": "three dose groups (12.5, 25, 50 mg/kg PO QD)", "text": "3. Daily observation of animals: the animals were monitored daily for health and death, and routine examinations include observation of the effect on tumor growth and the therapy on the daily performance of the animals, such as behavioral activities, food and water intake, change in body weight, appearance, or other abnormal conditions.\n1. The body weights of the animals were used as a reference index for indirectly measuring the toxicity of the drug. In this model, no other morbidity or mortality occurred during the study."}}, "data": [{"smiles": "C[C@]1(c2ccc(-c3[nH]c4cc(F)cc5c4c3CONC5=O)cc2)CCCN1", "note": "[Compound 1]", "values": [{"measurement": "IC50", "setting": "CYP3A4-M", "result": 32.9, "unit": "µM"}, {"measurement": "IC50", "setting": "[1]", "result": "> 10", "unit": "µM"}, {"measurement": "Residual content after 60 min of incubation", "setting": "[2]", "result": 31.8, "unit": "%"}, {"measurement": "IC50", "setting": "CYP2C9", "result": "> 50", "unit": "µM"}, {"measurement": "fraction unbound at 4 h, 2 μM", "setting": "[3]", "result": 0.077}, {"measurement": "change in body weight", "setting": "[4]", "result": "little change in body weight"}]}]}
